Laboratory results taken from patent US12209081B2 (Katholieke Universiteit Leuven, priority 2020, dated 2025).

molecular target: mouse TRPM3α2 (mTRPM3) ion channel (Mus musculus (Mouse), UniProt J9SQF3); experiment: TRPM3 ion channel driven Ca2+ uptake, Fluo-4 AM assay, mTRPM3alpha2 overexpressing flip-in HEK293 cells stimulated with pregnenolone sulfate; type: cell-based; conditions: PS (50 μM) stimulated, cpds. 400-499
In short: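 Read-out is Ca2+ influx via Fluo-4 AM fluorescence at 485/535 nm, taken right after seeding ~2000 cells/well onto compound with 50 μM PS. Inhibition computed from RFU between vehicle-stimulated and positive-control-inhibitor wells; cells were mTRPM3α2-overexpressing flip-in HEK293.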

Sequence of mouse TRPM3α2 (mTRPM3) ion channel (J9SQF3 other isoform, or with tags, fused parts or gaps): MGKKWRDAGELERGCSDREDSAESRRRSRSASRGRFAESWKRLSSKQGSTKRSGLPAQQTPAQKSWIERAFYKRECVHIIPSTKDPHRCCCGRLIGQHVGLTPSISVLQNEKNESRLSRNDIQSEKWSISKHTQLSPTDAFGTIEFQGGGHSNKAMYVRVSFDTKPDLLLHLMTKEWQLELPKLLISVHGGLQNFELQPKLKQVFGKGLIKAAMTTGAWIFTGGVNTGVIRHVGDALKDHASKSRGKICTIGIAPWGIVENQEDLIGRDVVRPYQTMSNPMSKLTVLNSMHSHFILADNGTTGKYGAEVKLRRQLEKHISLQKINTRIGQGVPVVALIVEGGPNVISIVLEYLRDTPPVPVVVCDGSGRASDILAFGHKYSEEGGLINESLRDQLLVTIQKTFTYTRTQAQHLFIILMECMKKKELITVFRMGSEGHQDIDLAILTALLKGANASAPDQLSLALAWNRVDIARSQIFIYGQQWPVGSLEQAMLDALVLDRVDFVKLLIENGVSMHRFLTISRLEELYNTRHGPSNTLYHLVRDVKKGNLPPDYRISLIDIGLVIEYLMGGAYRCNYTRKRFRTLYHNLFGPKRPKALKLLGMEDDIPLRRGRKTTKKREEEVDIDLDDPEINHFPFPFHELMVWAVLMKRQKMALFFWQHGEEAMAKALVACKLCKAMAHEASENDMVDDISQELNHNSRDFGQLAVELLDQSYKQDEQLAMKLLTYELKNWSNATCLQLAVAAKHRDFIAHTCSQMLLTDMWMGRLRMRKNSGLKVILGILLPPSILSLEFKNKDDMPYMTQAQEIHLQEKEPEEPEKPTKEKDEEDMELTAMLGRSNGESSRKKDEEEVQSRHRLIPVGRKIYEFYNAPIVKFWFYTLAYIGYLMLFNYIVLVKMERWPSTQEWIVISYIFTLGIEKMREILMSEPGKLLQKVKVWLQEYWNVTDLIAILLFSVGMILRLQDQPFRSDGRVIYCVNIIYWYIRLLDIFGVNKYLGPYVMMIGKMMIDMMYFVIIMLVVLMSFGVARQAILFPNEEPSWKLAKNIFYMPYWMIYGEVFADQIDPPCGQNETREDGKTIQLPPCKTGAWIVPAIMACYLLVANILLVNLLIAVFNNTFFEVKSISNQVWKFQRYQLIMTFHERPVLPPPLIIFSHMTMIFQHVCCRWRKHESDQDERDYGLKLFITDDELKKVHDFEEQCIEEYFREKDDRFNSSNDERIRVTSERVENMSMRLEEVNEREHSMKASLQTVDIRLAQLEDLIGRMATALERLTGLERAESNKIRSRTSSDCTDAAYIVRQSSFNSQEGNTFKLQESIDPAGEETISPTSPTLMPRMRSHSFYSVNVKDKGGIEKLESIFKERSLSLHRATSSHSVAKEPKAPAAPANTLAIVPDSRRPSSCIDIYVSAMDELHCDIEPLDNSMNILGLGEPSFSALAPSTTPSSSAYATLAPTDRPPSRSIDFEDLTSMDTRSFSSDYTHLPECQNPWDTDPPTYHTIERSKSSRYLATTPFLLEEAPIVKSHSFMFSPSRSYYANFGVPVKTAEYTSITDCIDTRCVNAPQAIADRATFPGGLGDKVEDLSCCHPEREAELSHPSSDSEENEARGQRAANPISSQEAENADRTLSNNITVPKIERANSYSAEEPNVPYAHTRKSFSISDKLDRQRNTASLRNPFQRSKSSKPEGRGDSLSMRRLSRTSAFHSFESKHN

Row | IC50 | Structure (SMILES)
1 | < 1000 nM | Cc1oc2ccc(OCc3cccnc3O)cc2c1C(=O)NC1(CO)CCC1 [compound 416, N-(1-(hydroxymethyl)cyclobutyl)-5-((2-hydroxypyridin-3-yl)methoxy)-2-methylbenzofuran-3-carboxamide]
2 | < 1000 nM | Cc1ncc(COc2ccc3oc(C)c(C(=O)NC4(CO)CC4)c3c2)s1 [compound 418, N-(1-(hydroxymethyl)cyclopropyl)-2-methyl-5-((2-methylthiazol-5-yl)methoxy)benzofuran-3-carboxamide]
3 | < 1000 nM | Cc1oc2ccc(OCc3nccn3C)cc2c1C(=O)NC(C)(CO)CO [compound 422, N-(1,3-dihydroxy-2-methylpropan-2-yl)-2-methyl-5-((1-methyl-1H-imidazol-2-yl)methoxy)benzofuran-3-carboxamide]
4 | < 1000 nM | Cc1oc2ccc(OCc3ccnn3C)cc2c1C(=O)NC(C)(CO)CO [compound 423, N-(1,3-dihydroxy-2-methylpropan-2-yl)-2-methyl-5-((1-methyl-1H-pyrazol-5-yl)methoxy)benzofuran-3-carboxamide]
5 | < 1000 nM | Cc1ncc(COc2ccc3oc(C)c(C(=O)NC(C)(CO)CO)c3c2)s1 [compound 425, N-(1,3-dihydroxy-2-methylpropan-2-yl)-2-methyl-5-((2-methylthiazol-5-yl)methoxy)benzofuran-3-carboxamide]
6 | < 1000 nM | Cc1ncsc1COc1ccc2oc(C)c(C(=O)NC(C)(CO)CO)c2c1 [compound 426, N-(1,3-dihydroxy-2-methylpropan-2-yl)-2-methyl-5-((4-methylthiazol-5-yl)methoxy)benzofuran-3-carboxamide]
7 | < 1000 nM | Cc1oc2ccc(OCc3cccnn3)cc2c1C(=O)NC(C)(CO)CO [compound 427, N-(1,3-dihydroxy-2-methylpropan-2-yl)-2-methyl-5-(pyridazin-3-ylmethoxy)benzofuran-3-carboxamide]
8 | < 1000 nM | Cc1oc2ccc(OCc3cccnc3O)cc2c1C(=O)NC(C)(CO)CO [compound 430, N-(1,3-dihydroxy-2-methylpropan-2-yl)-5-((2-hydroxypyridin-3-yl)methoxy)-2-methylbenzofuran-3-carboxamide]
9 | < 1000 nM | Cc1ncc(COc2ccc3oc(C)c(C(=O)NC(C)(C)C(N)=O)c3c2)s1 [compound 439, N-(1-amino-2-methyl-1-oxopropan-2-yl)-2-methyl-5-((2-methylthiazol-5-yl)methoxy)benzofuran-3-carboxamide]
10 | < 1000 nM | Cc1oc2ccc(OCc3cccnc3O)cc2c1C(=O)NC(C)(C)C(N)=O [compound 443, N-(1-amino-2-methyl-1-oxopropan-2-yl)-5-((2-hydroxypyridin-3-yl)methoxy)-2-methylbenzofuran-3-carboxamide]
11 | < 1000 nM | COc1ncccc1COc1ccc2oc(C)c(C(=O)NC(C)(C)C(N)=O)c2c1 [compound 444, N-(1-amino-2-methyl-1-oxopropan-2-yl)-5-((2-methoxypyridin-3-yl)methoxy)-2-methylbenzofuran-3-carboxamide]
12 | < 1000 nM | Cc1ncsc1COc1ccc2oc(C)c(C(=O)NC3(C(N)=O)CC(F)(F)C3)c2c1 [compound 470, N-(1-carbamoyl-3,3-difluorocyclobutyl)-2-methyl-5-((4-methylthiazol-5-yl)methoxy)benzofuran-3-carboxamide]

The next lines start with the molecule.

Row | Structure (SMILES) | IC50
13 | Cc1ncc(COc2ccc3oc(C)c(C(=O)NC4(CO)CCC4)c3c2)s1 [compound 414, N-(1-(hydroxymethyl)cyclobutyl)-2-methyl-5-((2-methylthiazol-5-yl)methoxy)benzofuran-3-carboxamide] | < 1000 nM
14 | Cc1oc2ccc(OCc3ccccn3)cc2c1C(=O)NC1(CO)CCC1 [compound 415, N-(1-(hydroxymethyl)cyclobutyl)-2-methyl-5-(pyridin-2-ylmethoxy)benzofuran-3-carboxamide] | < 1000 nM
15 | COc1ncccc1COc1ccc2oc(C)c(C(=O)NC3(CO)CCC3)c2c1 [compound 417, N-(1-(hydroxymethyl)cyclobutyl)-5-((2-methoxypyridin-3-yl)methoxy)-2-methylbenzofuran-3-carboxamide] | < 1000 nM
16 | Cc1oc2ccc(OCc3ccccn3)cc2c1C(=O)NC1(CO)CC1 [compound 419, N-(1-(hydroxymethyl)cyclopropyl)-2-methyl-5-(pyridin-2-ylmethoxy)benzofuran-3-carboxamide] | < 1000 nM
17 | Cc1oc2ccc(OCc3cccnc3O)cc2c1C(=O)NC1(CO)CC1 [compound 420, N-(1-(hydroxymethyl)cyclopropyl)-5-((2-hydroxypyridin-3-yl)methoxy)-2-methylbenzofuran-3-carboxamide] | < 1000 nM
18 | COc1ncccc1COc1ccc2oc(C)c(C(=O)NC3(CO)CC3)c2c1 [compound 421, N-(1-(hydroxymethyl)cyclopropyl)-5-((2-methoxypyridin-3-yl)methoxy)-2-methylbenzofuran-3-carboxamide] | < 1000 nM
19 | Cc1oc2ccc(OCc3cccnc3C(F)(F)F)cc2c1C(=O)NC(C)(CO)CO [compound 424, N-(1,3-dihydroxy-2-methylpropan-2-yl)-2-methyl-5-((2-(trifluoromethyl)pyridin-3-yl)methoxy)benzofuran-3-carboxamide] | < 1000 nM
20 | Cc1oc2ccc(OCc3ccccn3)cc2c1C(=O)NC(C)(CO)CO [compound 428, N-(1,3-dihydroxy-2-methylpropan-2-yl)-2-methyl-5-(pyridin-2-ylmethoxy)benzofuran-3-carboxamide] | < 1000 nM
21 | Cc1oc2ccc(OCc3ccncn3)cc2c1C(=O)NC(C)(CO)CO [compound 429, N-(1,3-dihydroxy-2-methylpropan-2-yl)-2-methyl-5-(pyrimidin-4-ylmethoxy)benzofuran-3-carboxamide] | < 1000 nM
22 | COc1ncccc1COc1ccc2oc(C)c(C(=O)NC(C)(CO)CO)c2c1 [compound 431, N-(1,3-dihydroxy-2-methylpropan-2-yl)-5-((2-methoxypyridin-3-yl)methoxy)-2-methylbenzofuran-3-carboxamide] | < 1000 nM
23 | Cc1oc2ccc(OCc3ccnn3C)cc2c1C(=O)NC(C)(C)C(N)=O [compound 438, N-(1-amino-2-methyl-1-oxopropan-2-yl)-2-methyl-5-((1-methyl-1H-pyrazol-5-yl)methoxy)benzofuran-3-carboxamide] | < 1000 nM
24 | Cc1ncsc1COc1ccc2oc(C)c(C(=O)NC(C)(C)C(N)=O)c2c1 [compound 440, N-(1-amino-2-methyl-1-oxopropan-2-yl)-2-methyl-5-((4-methylthiazol-5-yl)methoxy)benzofuran-3-carboxamide] | < 1000 nM
25 | Cc1oc2ccc(OCc3cccnn3)cc2c1C(=O)NC(C)(C)C(N)=O [compound 441, N-(1-amino-2-methyl-1-oxopropan-2-yl)-2-methyl-5-(pyridazin-3-ylmethoxy)benzofuran-3-carboxamide] | < 1000 nM
26 | Cc1oc2ccc(OCc3ccccn3)cc2c1C(=O)NC(C)(C)C(N)=O [compound 442, N-(1-amino-2-methyl-1-oxopropan-2-yl)-2-methyl-5-(pyridin-2-ylmethoxy)benzofuran-3-carboxamide] | < 1000 nM
27 | Cc1ncsc1COc1ccc2oc(C)c(C(=O)NC(CO)C(N)=O)c2c1 (stereo not drawn) [compound 454, N-(1-amino-3-hydroxy-1-oxopropan-2-yl)-2-methyl-5-((4-methylthiazol-5-yl)methoxy)benzofuran-3-carboxamide] | < 1000 nM
